Measurements: patent publication US20230265151A1, “GIP/GLP1 CO-AGONIST COMPOUNDS” (priority 2020, published 2023)
Where two headings read alike, the source gives them in different places.

Legend:
Type in all cases: cell-based
hGIPR = biological target: T1, hGIPR (Homo sapiens, UniProt P48546); test: Functional cAMP formation (HTRF) in HEK-293 clonal cells expressing hGIPR, 0.1% bovine casein, without or with 1.0% human serum albumin; details: for EC50: geometric mean
T1 construct: expressed in transfected cells
T1 sequence (P48546 22-466): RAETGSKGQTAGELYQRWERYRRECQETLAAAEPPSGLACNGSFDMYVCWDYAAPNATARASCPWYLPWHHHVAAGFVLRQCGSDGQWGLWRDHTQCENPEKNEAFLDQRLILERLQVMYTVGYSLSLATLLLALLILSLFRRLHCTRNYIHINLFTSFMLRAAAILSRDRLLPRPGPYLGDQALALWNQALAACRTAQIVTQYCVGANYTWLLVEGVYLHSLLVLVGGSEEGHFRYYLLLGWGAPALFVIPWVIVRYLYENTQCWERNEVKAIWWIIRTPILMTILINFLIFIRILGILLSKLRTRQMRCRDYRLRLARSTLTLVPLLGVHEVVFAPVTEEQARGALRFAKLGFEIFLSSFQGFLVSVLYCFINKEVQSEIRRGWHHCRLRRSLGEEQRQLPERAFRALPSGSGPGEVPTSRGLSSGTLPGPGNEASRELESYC
Summary of the method: (§1)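 Readings of the HTRF 665/620 nm ratio, which falls as cAMP rises, were converted to nM cAMP using a standard curve after 30 min peptide exposure at 37° C.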

hGCGR = biological target: T2, hGCGR (Homo sapiens, UniProt P47871); test: Functional cAMP formation (HTRF) in HEK-293 clonal cells expressing hGCGR, 0.1% bovine casein, without or with 1.0% human serum albumin; details: geometric mean
T2 construct: expressed in transfected cells
T2 sequence (P47871 26-477): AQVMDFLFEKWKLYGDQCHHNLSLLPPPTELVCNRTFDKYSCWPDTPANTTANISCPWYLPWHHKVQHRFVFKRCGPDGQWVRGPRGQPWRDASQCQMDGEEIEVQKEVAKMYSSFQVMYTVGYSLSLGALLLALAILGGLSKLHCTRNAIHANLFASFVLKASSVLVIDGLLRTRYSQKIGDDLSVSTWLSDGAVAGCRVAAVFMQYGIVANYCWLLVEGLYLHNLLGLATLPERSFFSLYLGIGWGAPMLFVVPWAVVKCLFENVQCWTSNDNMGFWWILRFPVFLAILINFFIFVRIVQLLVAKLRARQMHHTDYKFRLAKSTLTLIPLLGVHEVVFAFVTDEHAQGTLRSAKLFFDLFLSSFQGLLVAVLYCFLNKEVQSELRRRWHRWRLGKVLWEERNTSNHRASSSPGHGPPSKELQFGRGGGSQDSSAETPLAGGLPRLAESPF
Summary of the method: as §1

hGLP-1R = hGLP-1R (Homo sapiens, UniProt P43220); test: Functional cAMP formation (HTRF) in HEK-293 clonal cells expressing hGLP-1R, 0.1% bovine casein, without or with 1.0% human serum albumin; parameters: expressed in transfected cells; details: for EC50: geometric mean, read-out: hGLP-1R EC50, nM (SEM, n)
Sequence of hGLP-1R (P43220 24-463): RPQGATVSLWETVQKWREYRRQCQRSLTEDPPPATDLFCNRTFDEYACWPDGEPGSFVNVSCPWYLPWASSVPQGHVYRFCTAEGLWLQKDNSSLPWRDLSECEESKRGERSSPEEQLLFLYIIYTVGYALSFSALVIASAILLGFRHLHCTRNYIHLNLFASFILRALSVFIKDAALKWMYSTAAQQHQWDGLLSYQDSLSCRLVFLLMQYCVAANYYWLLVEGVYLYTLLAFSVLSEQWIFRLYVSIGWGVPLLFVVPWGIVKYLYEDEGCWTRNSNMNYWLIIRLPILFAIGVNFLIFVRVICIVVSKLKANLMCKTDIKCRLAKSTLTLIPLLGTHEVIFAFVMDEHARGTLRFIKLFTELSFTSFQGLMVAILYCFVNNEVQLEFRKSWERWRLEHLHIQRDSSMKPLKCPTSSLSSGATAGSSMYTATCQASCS
Summary of the method: as §1

[1] = HEK293, 0.1% bovine casein and 1.0% human serum albumin, 37° C., percent of maximal response to GIP(1-42)NH2, read-out: hGIPR Emax, % ± SEM
[2] = 0.1% bovine casein and 1.0% human serum albumin, 37° C., read-out: hGCGR EC50, nM (SEM, n)
[3] = 0.1% bovine casein and 1.0% human serum albumin, 37° C.
[4] = 0.1% bovine casein and 1.0% human serum albumin, 37° C., read-out: hGIPR EC50, nM (SEM, n)
[5] = HEK293, percent of maximal response to GIP(1-42)NH2, 37° C., 0.1% bovine casein, arithmetic mean, read-out: hGIPR Emax, % ± SEM
[6] = cAMP, incubated at 37° C., 0.1% bovine casein (no human serum albumin), read-out: hGIPR EC50, nM (SEM, n)
[7] = cAMP, incubated at 37° C., 0.1% bovine casein (no human serum albumin), read-out: hGCGR EC50, nM (SEM, n)
[8] = HEK293, percent of maximal response to GLP-1(7-36)NH2, 37° C., 0.1% bovine casein, arithmetic mean, read-out: hGLP-1R Emax, % ± SEM
[9] = cAMP, incubated at 37° C., 0.1% bovine casein (no human serum albumin)

CC[C@H](C)[C@H](NC(=O)[C@H](CC(C)C)NC(=O)[C@](C)(Cc1ccc(O)cc1)NC(=O)[C@@H](CCC(=O)O)NC(=O)[C@@H](NC(=O)[C@H](Cc1ccccc1)NC(=O)[C@H](CCCCNC(=O)COCCOCCNC(=O)COCCOCCNC(=O)CC[C@H](NC(=O)CCCCCCCCCCCCC(=O)O)C(=O)O)NC(=O)C(C)(C)NC(=O)[C@H](CCC(N)=O)NC(=O)[C@H](C)NC(=O)[C@H](CCCCNC(=O)COCCOCCNC(=O)COCCOCCNC(=O)CC[C@H](NC(=O)CCCCCCCCCCCCC(=O)O)C(=O)O)NC(=O)[C@H](CCCN)NC(=O)[C@H](CC(=O)O)NC(=O)[C@H](CC(C)C)NC(=O)[C@](C)(CC(C)C)NC(=O)[C@@H](NC(=O)[C@H](CO)NC(=O)[C@H](Cc1ccc2ccccc2c1)NC(=O)[C@H](CC(=O)O)NC(=O)[C@H](CO)NC(=O)[C@@H](NC(=O)[C@](C)(Cc1ccccc1F)NC(=O)[C@@H](NC(=O)CNC(=O)[C@H](CCC(=O)O)NC(=O)C(C)(C)NC(=O)[C@@H](N)Cc1ccc(O)cc1)[C@@H](C)O)[C@@H](C)O)[C@@H](C)CC)[C@@H](C)CC)C(=O)N[C@@H](CCC(=O)O)C(=O)NCC(=O)NCC(=O)N1CCC[C@H]1C(=O)N[C@@H](CO)C(=O)N[C@@H](CO)C(=O)NCC(=O)N[C@@H](C)C(=O)N1CCC[C@H]1C(=O)N1CCC[C@H]1C(=O)N1CCC[C@H]1C(=O)N[C@@H](CO)C(N)=O [Example 249]
Emax (hGIPR; [1]): 88.9% | EC50 (hGIPR; cAMP, 37° C., 0.1% bovine casein (no human serum albumin), read-out: hGIPR EC50, nM (SEM, n)): 0.0201 nM | EC50 (hGCGR; [2]): > 9950 nM | EC50 (hGCGR; cAMP, 37° C., 0.1% bovine casein (no human serum albumin), read-out: hGCGR EC50, nM (SEM, n)): > 9950 nM | EC50 (hGLP-1R; [3]): 51.6 nM | EC50 (hGLP-1R; cAMP, 37° C., 0.1% bovine casein (no human serum albumin)): 0.3 nM

CC[C@H](C)[C@H](NC(=O)[C@H](CCCN)NC(=O)[C@H](CC(=O)O)NC(=O)[C@H](CC(C)C)NC(=O)[C@](C)(CC(C)C)NC(=O)[C@@H](NC(=O)[C@H](CO)NC(=O)[C@H](Cc1ccncc1)NC(=O)[C@H](CC(=O)O)NC(=O)[C@H](CO)NC(=O)[C@@H](NC(=O)[C@](C)(Cc1ccccc1F)NC(=O)[C@@H](NC(=O)CNC(=O)[C@H](CCC(=O)O)NC(=O)C(C)(C)NC(=O)[C@@H](N)Cc1ccc(O)cc1)[C@@H](C)O)[C@@H](C)O)[C@@H](C)CC)C(=O)N[C@@H](C)C(=O)N[C@@H](CCC(N)=O)C(=O)NC(C)(C)C(=O)N[C@@H](CCCCNC(=O)COCCOCCNC(=O)COCCOCCNC(=O)CCCCCCCCCCCCC(=O)O)C(=O)N[C@@H](Cc1ccccc1)C(=O)N[C@H](C(=O)N[C@H](CCC(=O)O)C(=O)N[C@@](C)(Cc1ccc(O)cc1)C(=O)N[C@@H](CC(C)C)C(=O)N[C@H](C(=O)N[C@@H](CCC(=O)O)C(=O)NCC(=O)NCC(=O)N1CCC[C@H]1C(=O)N[C@@H](CO)C(=O)N[C@@H](CO)C(=O)NCC(=O)N[C@@H](C)C(=O)N1CCC[C@H]1C(=O)N1CCC[C@H]1C(=O)N1CCC[C@H]1C(=O)N[C@@H](CO)C(=O)N[C@@H](CCCCNC(=O)COCCOCCNC(=O)COCCOCCNC(=O)CCCCCCCCCCCCC(=O)O)C(N)=O)[C@@H](C)CC)[C@@H](C)CC [Example 196]
EC50 (hGIPR; [4]): 0.712 nM | Emax (hGIPR; [1]): 80.8 ± 0.269% | Emax (hGIPR; [5]): 96 ± 2.1% | EC50 (hGIPR; [6]): 0.0232 nM | EC50 (hGCGR; [2]): > 9950 nM | EC50 (hGCGR; [7]): > 9950 nM | EC50 (hGLP-1R; [3]): 21.4 nM | Emax (hGLP-1R; HEK293, 0.1% bovine casein and 1.0% human serum albumin, 37° C., percent of maximal response to GLP-1(7-36)NH2, read-out: hGLP-1R Emax, % ± SEM): 112 ± 4.62% | Emax (hGLP-1R; [8]): 96.8 ± 2.59% | EC50 (hGLP-1R; [9]): 0.356 nM

CCCCCCCCCCCC(=O)N[C@@H](CCC(=O)NCCOCCOCC(=O)NCCOCCOCC(=O)NCCCC[C@H](NC(=O)CNC(=O)CNC(=O)[C@H](CCC(=O)O)NC(=O)[C@@H](NC(=O)[C@H](CC(C)C)NC(=O)[C@](C)(Cc1ccc(O)cc1)NC(=O)[C@@H](CCC(=O)O)NC(=O)[C@@H](NC(=O)[C@H](Cc1ccccc1)NC(=O)[C@H](CCC(=O)O)NC(=O)C(C)(C)NC(=O)[C@H](CCC(N)=O)NC(=O)[C@H](C)NC(=O)[C@H](CCCCNC(=O)COCCOCCNC(=O)COCCOCCNC(=O)CC[C@H](NC(=O)CCCCCCCCCCC)C(=O)O)NC(=O)[C@H](CCCN)NC(=O)[C@H](CC(=O)O)NC(=O)[C@H](CC(C)C)NC(=O)[C@](C)(CC(C)C)NC(=O)[C@@H](NC(=O)C(C)(C)NC(=O)[C@@H](NC(=O)[C@H](CC(=O)O)NC(=O)[C@H](CO)NC(=O)[C@@H](NC(=O)[C@](C)(Cc1ccccc1F)NC(=O)[C@@H](NC(=O)CNC(=O)[C@H](CCC(=O)O)NC(=O)C(C)(C)NC(=O)[C@@H](N)Cc1ccc(O)cc1)[C@@H](C)O)[C@@H](C)O)C(C)C)[C@@H](C)CC)[C@@H](C)CC)[C@@H](C)CC)C(=O)N[C@@H](CO)C(=O)N[C@@H](CO)C(=O)NCC(=O)N[C@@H](C)C(=O)N1CCC[C@H]1C(=O)N1CCC[C@H]1C(=O)N1CCC[C@H]1C(=O)N[C@@H](CO)C(N)=O)C(=O)O [Example 175]
Emax (hGIPR; [5]): 100% | EC50 (hGCGR; [7]): > 9950 nM | Emax (hGLP-1R; [8]): 91.1% | EC50 (hGLP-1R; [9]): 0.227 nM

CC[C@H](C)[C@H](NC(=O)[C@H](CC(C)C)NC(=O)[C@](C)(Cc1ccc(O)cc1)NC(=O)[C@@H](CCC(=O)O)NC(=O)[C@@H](NC(=O)[C@H](Cc1ccccc1)NC(=O)[C@H](CCCCNC(=O)COCCOCCNC(=O)CC[C@H](NC(=O)CCCCCCCCCCCCC(=O)O)C(=O)O)NC(=O)C(C)(C)NC(=O)[C@H](CCC(N)=O)NC(=O)[C@H](C)NC(=O)[C@H](CCCCNC(=O)COCCOCCNC(=O)CC[C@H](NC(=O)CCCCCCCCCCCCC(=O)O)C(=O)O)NC(=O)[C@H](CCCN)NC(=O)[C@H](CC(=O)O)NC(=O)[C@H](CC(C)C)NC(=O)[C@](C)(CC(C)C)NC(=O)[C@@H](NC(=O)[C@H](CO)NC(=O)[C@H](Cc1ccncc1)NC(=O)[C@H](CC(=O)O)NC(=O)[C@H](CO)NC(=O)[C@@H](NC(=O)[C@](C)(Cc1ccccc1F)NC(=O)[C@@H](NC(=O)CNC(=O)[C@H](CCC(=O)O)NC(=O)C(C)(C)NC(=O)[C@@H](N)Cc1ccc(O)cc1)[C@@H](C)O)[C@@H](C)O)[C@@H](C)CC)[C@@H](C)CC)C(=O)N[C@@H](CCC(=O)O)C(=O)NCC(=O)NCC(=O)N1CCC[C@H]1C(=O)N[C@@H](CO)C(=O)N[C@@H](CO)C(=O)NCC(=O)N[C@@H](C)C(=O)N1CCC[C@H]1C(=O)N1CCC[C@H]1C(=O)N1CCC[C@H]1C(=O)N[C@@H](CO)C(N)=O [Example 76]
EC50 (hGIPR; [4]): 1.4 nM | Emax (hGIPR; [1]): 89.9 ± 2.11% | EC50 (hGIPR; [6]): 0.0205 nM | EC50 (hGCGR; [2]): > 9950 nM | EC50 (hGCGR; [7]): > 9950 nM | EC50 (hGLP-1R; [3]): 28.9 nM | EC50 (hGLP-1R; [9]): 0.527 nM

CC[C@H](C)[C@H](NC(=O)[C@H](CC(C)C)NC(=O)[C@](C)(Cc1ccc(O)cc1)NC(=O)[C@H](CCC(=O)O)NC(=O)[C@@H](NC(=O)[C@H](Cc1ccccc1)NC(=O)[C@H](CCC(=O)O)NC(=O)C(C)(C)NC(=O)[C@H](CCC(N)=O)NC(=O)[C@H](C)NC(=O)[C@H](CCCCNC(=O)COCCOCCNC(=O)COCCOCCNC(=O)CC[C@H](NC(=O)CCCCCCCCCCCCC(=O)O)C(=O)O)NC(=O)[C@H](CCCN)NC(=O)[C@H](CC(=O)O)NC(=O)[C@H](CC(C)C)NC(=O)[C@](C)(CC(C)C)NC(=O)[C@@H](NC(=O)[C@H](CO)NC(=O)[C@H](Cc1ccncc1)NC(=O)[C@H](CC(=O)O)NC(=O)[C@H](CO)NC(=O)[C@@H](NC(=O)[C@](C)(Cc1ccccc1F)NC(=O)[C@@H](NC(=O)CNC(=O)[C@H](CCC(=O)O)NC(=O)C(C)(C)NC(=O)[C@@H](N)Cc1ccc(O)cc1)[C@@H](C)O)[C@@H](C)O)[C@@H](C)CC)[C@@H](C)CC)C(=O)N[C@@H](CCC(=O)O)C(=O)NCC(=O)NCC(=O)N[C@@H](CCCCNC(=O)COCCOCCNC(=O)COCCOCCNC(=O)CC[C@H](NC(=O)CCCCCCCCCCCCC(=O)O)C(=O)O)C(=O)N[C@@H](CO)C(=O)N[C@@H](CO)C(=O)NCC(=O)N[C@@H](C)C(=O)N1CCC[C@H]1C(=O)N1CCC[C@H]1C(=O)N1CCC[C@H]1C(=O)N[C@@H](CO)C(N)=O [Example 158]
Emax (hGIPR; HEK293, read-out: hGIPR Emax, % ± SEM, percent of maximal response to GIP(1-42)NH2, 37° C., 0.1% bovine casein, arithmetic mean): 93.4% | EC50 (hGIPR; hGIPR EC50, nM (SEM, n), cAMP, incubated at 37° C., 0.1% bovine casein (no human serum albumin)): 0.0204 nM | EC50 (hGCGR; hGCGR EC50, nM (SEM, n), cAMP, incubated at 37° C., 0.1% bovine casein (no human serum albumin)): > 9950 nM | Emax (hGLP-1R; HEK293, read-out: hGLP-1R Emax, % ± SEM, percent of maximal response to GLP-1(7-36)NH2, 37° C., 0.1% bovine casein, arithmetic mean): 87.2%
